Reference: PubChem BioAssay AID248 (DTP/NCI, 2004)
Where “and” joins values, the source holds several entries; their conditions need not be identical. Identical values can stand only once. Inconclusive results and toxic doses are left out. Rule as the data show it: active = T/C of 150% or more; inactive = T/C below 125%.

Tested on: L1210 leukemia ip in BDF1 mice, survival T/C
Assay: NCI In Vivo Anticancer Drug Screen. Data for tumor model L1210 Leukemia (intraperitoneal) in B6D2F1 (BDF1) mice
Conditions: endpoint: mean survival time, higher = longer survival
Outline: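 Survival endpoint. Drug-treated group vs vehicle group, expressed as T divided by C. Tumor passaged by transplantation.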

[1] = dose: 50.0 mg/kg/injection, schedule: Q01DX009 (ip), vehicle: Klucel (hydroxypropylcellulose) (HPC)
[2] = dose: 100.0 mg/kg/injection, schedule: Q01DX009 (ip), vehicle: Klucel (hydroxypropylcellulose) (HPC)
[3] = dose: 200.0 mg/kg/injection, schedule: Q01DX009 (ip), vehicle: Klucel (hydroxypropylcellulose) (HPC)
[4] = dose: 400.0 mg/kg/injection, schedule: Q01DX009 (ip), vehicle: Klucel (hydroxypropylcellulose) (HPC)
[5] = dose: 100.0 mg/kg/injection, schedule: Q01DX001 (ip), vehicle: saline
[6] = dose: 200.0 mg/kg/injection, schedule: Q01DX001 (ip), vehicle: saline
[7] = dose: 400.0 mg/kg/injection, schedule: Q01DX001 (ip), vehicle: saline
[8] = dose: 100.0 mg/kg/injection, schedule: Q01DX001 (ip), vehicle: carboxymethylcellulose (CMC)
[9] = dose: 200.0 mg/kg/injection, schedule: Q01DX001 (ip), vehicle: carboxymethylcellulose (CMC)
[10] = dose: 100.0 mg/kg/injection, schedule: Q04DX003 (ip), vehicle: saline with Tween-80
[11] = dose: 200.0 mg/kg/injection, schedule: Q04DX003 (ip), vehicle: saline with Tween-80
[12] = dose: 400.0 mg/kg/injection, schedule: Q04DX003 (ip), vehicle: saline with Tween-80
[13] = dose: 50.0 mg/kg/injection, schedule: Q01DX001 (ip), vehicle: saline
[14] = dose: 200.0 mg/kg/injection, schedule: Q01DX001 (ip), vehicle: saline with Tween-80
[15] = dose: 400.0 mg/kg/injection, schedule: Q01DX001 (ip), vehicle: saline with Tween-80
[16] = dose: 100.0 mg/kg/injection, schedule: Q01DX009 (ip), vehicle: saline with Tween-80
[17] = dose: 100.0 mg/kg/injection, schedule: Q04DX003 (ip), vehicle: Klucel (hydroxypropylcellulose) (HPC)
[18] = dose: 200.0 mg/kg/injection, schedule: Q01DX009 (ip), vehicle: saline with Tween-80
[19] = dose: 200.0 mg/kg/injection, schedule: Q04DX003 (ip), vehicle: Klucel (hydroxypropylcellulose) (HPC)
[20] = dose: 400.0 mg/kg/injection, schedule: Q01DX009 (ip), vehicle: saline with Tween-80
[21] = dose: 400.0 mg/kg/injection, schedule: Q04DX003 (ip), vehicle: Klucel (hydroxypropylcellulose) (HPC)
[22] = dose: 100.0 mg/kg/injection, schedule: Q04DX002 (ip), vehicle: Klucel (hydroxypropylcellulose) (HPC)
[23] = dose: 200.0 mg/kg/injection, schedule: Q04DX002 (ip), vehicle: Klucel (hydroxypropylcellulose) (HPC)
[24] = dose: 400.0 mg/kg/injection, schedule: Q04DX002 (ip), vehicle: Klucel (hydroxypropylcellulose) (HPC)

Measured: T/C

COc1ccc([N+](=O)[O-])cc1NC(=O)Nc1ccc(SC)cc1
inactive: [1] 90 % of control | [2] 89 % of control | [3] 90 % of control and 92 % of control | [4] 98 % of control

c1ccc(NC(c2ccccc2)C(Nc2ccccc2)(c2ccccc2)c2ccccc2)cc1 (centres undefined)
inactive: dose: 100.0 mg/kg/injection, schedule: Q04DX003 (ip), vehicle: other 89 % of control | dose: 200.0 mg/kg/injection, schedule: Q04DX003 (ip), vehicle: other 94 % of control | dose: 400.0 mg/kg/injection, schedule: Q04DX003 (ip), vehicle: other 87 % of control

C=CCOC(=O)N[C@H](CC(C)C)C(N)=O
inactive: dose: 100.0 mg/kg/injection, schedule: Q01DX001 (ip), vehicle: other 94 % of control | dose: 200.0 mg/kg/injection, schedule: Q01DX001 (ip), vehicle: other 110 % of control | dose: 400.0 mg/kg/injection, schedule: Q01DX001 (ip), vehicle: other 100 % of control

CC(C)([CH2][Sn]([Cl])([Cl])[CH2]C(C)(C)c1ccccc1)c1ccccc1
inactive: dose: 0.1 mg/kg/injection, schedule: Q04DX002 (ip), vehicle: saline with Tween-80 95 % of control | dose: 0.2 mg/kg/injection, schedule: Q04DX002 (ip), vehicle: saline with Tween-80 95 % of control | dose: 0.4 mg/kg/injection, schedule: Q04DX002 (ip), vehicle: saline with Tween-80 95 % of control | dose: 0.8 mg/kg/injection, schedule: Q04DX002 (ip), vehicle: saline with Tween-80 92 % of control | dose: 3.13 mg/kg/injection, schedule: Q04DX002 (ip), vehicle: saline with Tween-80 98 % of control

CCC(C)(O)CC
inactive: [5] 97 % of control | [6] 110 % of control | [7] 110 % of control

N#Cc1cc(Cl)cc(Cl)c1
inactive: [8] 98 % of control | [9] 104 % of control | dose: 400.0 mg/kg/injection, schedule: Q01DX001 (ip), vehicle: carboxymethylcellulose (CMC) 93 % of control

COc1cc(OC)c2c(c1Cl)OC1(C(=O)C=CCC1C)C2=O (centres undefined)
inactive: [10] 98 % of control | [11] 104 % of control | [12] 96 % of control

c1ccc2c(c1)CCc1ccccc1CC2
inactive: [2] 93 % of control | [3] 96 % of control | [4] 90 % of control

O=C1C(O)CCN1Cc1ccccc1 (centres undefined)
inactive: [13] 108 % of control | [5] 104 % of control | [6] 104 % of control | [7] 102 % of control

Nc1ncnc2c1ncn2C1OC(CO)C(S)C1O (centres undefined)
inactive: [8] 105 % of control | [9] 92 % of control

C=C(Cl)CO
inactive: dose: 25.0 mg/kg/injection, schedule: Q04DX003 (ip), vehicle: saline 118 % of control | dose: 50.0 mg/kg/injection, schedule: Q04DX003 (ip), vehicle: saline 89 % of control

O=C1C(c2ccccc2)=C(c2ccccc2)c2c1c(-c1ccccc1)c(-c1ccccc1)c(-c1ccccc1)c2-c1ccccc1
inactive: dose: 6.25 mg/kg/injection, schedule: Q01DX001 (ip), vehicle: saline with Tween-80 98 % of control | dose: 12.5 mg/kg/injection, schedule: Q01DX001 (ip), vehicle: saline with Tween-80 98 % of control | dose: 25.0 mg/kg/injection, schedule: Q01DX001 (ip), vehicle: saline with Tween-80 89 % of control and 91 % of control | [14] 90 % of control | [15] 87 % of control

COc1ccccc1C1OC1C(=O)O (centres undefined)
inactive: [5] 102 % of control | [6] 94 % of control | [7] 103 % of control

CSc1ccc(NC(=O)Nc2ccc(S(N)(=O)=O)cc2)cc1
inactive: [16] 106 % of control | [17] 104 % of control | [18] 95 % of control | [19] 100 % of control | [20] 102 % of control | [21] 98 % of control

O=[N+]([O-])c1c[nH]c2[nH]cnc(=S)c12
inactive: [8] 102 % of control | [9] 87 % of control

CCOP(=O)(NC12CC3CC(CC(C3)C1)C2)OCC
inactive: [2] 97 % of control | [17] 93 % of control | [3] 94 % of control | [19] 98 % of control | [21] 90 % of control

OC(c1ccccc1)(c1ccccc1)c1nc2ccccc2[nH]1
inactive: dose: 75.0 mg/kg/injection, schedule: Q01DX009 (ip), vehicle: Klucel (hydroxypropylcellulose) (HPC) 97 % of control | dose: 150.0 mg/kg/injection, schedule: Q01DX009 (ip), vehicle: Klucel (hydroxypropylcellulose) (HPC) 87 % of control | dose: 300.0 mg/kg/injection, schedule: Q01DX009 (ip), vehicle: Klucel (hydroxypropylcellulose) (HPC) 104 % of control

Cc1cccc(NC(=O)CSc2cc(Cl)c(Cl)cc2Cl)c1
inactive: dose: 100.0 mg/kg/injection, schedule: Q01DX001 (ip), vehicle: saline with Tween-80 93 % of control | [14] 90 % of control | [15] 87 % of control

CC(C)CCCC(C)CCCC(C)CCCCC(C)CCCC(C)CCCC(C)C (centres undefined)
inactive: [22] 103 % of control | [23] 106 % of control | [24] 109 % of control

Cc1cc(Br)ccc1NC(=O)/C=C/C(=O)O
inactive: [22] 114 % of control | [23] 95 % of control | [24] 100 % of control

NC(=S)N/N=C\C(c1ccccc1)c1ccccc1
inactive: [16] 98 % of control | [10] 96 % of control | [18] 94 % of control | [11] 95 % of control | [20] 96 % of control | [12] 104 % of control

O=c1[nH]c(=O)n(Cc2ccccc2)cc1Cc1ccccc1
inactive: [10] 106 % of control | [11] 98 % of control | [12] 101 % of control

CC1CNC(=S)S1 (centres undefined)
inactive: [2] 105 % of control | [17] 107 % of control | [3] 100 % of control | [19] 102 % of control | [21] 102 % of control

Nc1nc2c(nc(Br)n2C2CC(O)C(CO)O2)c(=O)[nH]1 (centres undefined)
inactive: [13] 102 % of control | [5] 102 % of control | [6] 98 % of control | [7] 98 % of control

CCOC(=O)c1cc([N+](=O)[O-])ccc1N
inactive: [5] 100 % of control | [6] 94 % of control | [7] 94 % of control

OCC(F)(F)C(F)F
inactive: [13] 91 % of control | [5] 94 % of control | [6] 91 % of control | [7] 100 % of control

CC[n+]1c(C)ccc2ccccc21
inactive: dose: 25.0 mg/kg/injection, schedule: Q01DX009 (ip), vehicle: Klucel (hydroxypropylcellulose) (HPC) 91 % of control | dose: 25.0 mg/kg/injection, schedule: Q04DX003 (ip), vehicle: Klucel (hydroxypropylcellulose) (HPC) 99 % of control | [13] 95 % of control | [1] 91 % of control | dose: 50.0 mg/kg/injection, schedule: Q04DX003 (ip), vehicle: Klucel (hydroxypropylcellulose) (HPC) 99 % of control

CNC(=S)Nc1ncn[nH]1
inactive: dose: 100.0 mg/kg/injection, schedule: Q04DX003 (ip), vehicle: saline 94 % of control | dose: 200.0 mg/kg/injection, schedule: Q04DX003 (ip), vehicle: saline 100 % of control | dose: 400.0 mg/kg/injection, schedule: Q04DX003 (ip), vehicle: saline 86 % of control

O=[N+]([O-])c1ccc(S(=O)(=O)O)c([N+](=O)[O-])c1.[Ag]
inactive: dose: 3.12 mg/kg/injection, schedule: Q01DX009 (ip), vehicle: DMSO 95 % of control | dose: 6.25 mg/kg/injection, schedule: Q01DX009 (ip), vehicle: DMSO 97 % of control | dose: 12.5 mg/kg/injection, schedule: Q01DX009 (ip), vehicle: DMSO 95 % of control | dose: 12.5 mg/kg/injection, schedule: Q01DX009 (ip), vehicle: other 93 % of control | dose: 12.5 mg/kg/injection, schedule: Q04DX003 (ip), vehicle: other 104 % of control | dose: 25.0 mg/kg/injection, schedule: Q04DX003 (ip), vehicle: other 98 % of control | dose: 50.0 mg/kg/injection, schedule: Q04DX003 (ip), vehicle: other 103 % of control

CC(=O)CC(=O)Nc1ccc(C)cc1C
inactive: [17] 102 % of control | [19] 98 % of control | [21] 115 % of control

N#Cc1cccc(CS(=O)(=O)c2ccccc2)c1
inactive: [22] 104 % of control | [23] 96 % of control | [24] 89 % of control
